Test results: BindingDB's records for doi:10.1073/pnas.0710981105 (Merck Research Laboratories, 2008)

Biological target: T1, Bile acid receptor (Homo sapiens, UniProt Q96RI1)
T1 sequence (Q96RI1 whole entry): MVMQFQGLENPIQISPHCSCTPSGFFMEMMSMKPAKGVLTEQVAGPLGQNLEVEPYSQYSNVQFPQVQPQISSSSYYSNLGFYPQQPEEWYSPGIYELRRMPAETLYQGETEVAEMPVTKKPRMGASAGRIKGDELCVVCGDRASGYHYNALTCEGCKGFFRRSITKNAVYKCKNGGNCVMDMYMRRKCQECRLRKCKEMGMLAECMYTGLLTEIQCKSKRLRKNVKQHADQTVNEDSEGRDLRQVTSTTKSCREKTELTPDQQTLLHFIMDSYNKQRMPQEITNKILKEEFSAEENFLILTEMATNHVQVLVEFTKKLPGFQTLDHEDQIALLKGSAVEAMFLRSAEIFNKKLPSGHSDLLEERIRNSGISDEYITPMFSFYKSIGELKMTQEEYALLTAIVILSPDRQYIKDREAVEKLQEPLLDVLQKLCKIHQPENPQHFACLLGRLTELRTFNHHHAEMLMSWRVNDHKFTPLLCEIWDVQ
Experiment: HTRF Coactivator Recruitment Assay
Settings: pH 7; 4 °C
Protocol: To each well of a 96-well assay plate, assay buffer was added containing purified GST-FXR, Eu-labeled anti-GST antibody (Perkin-Elmer), streptavidin-XL665 (Packard Instruments), biotin-tagged SRC-1 fragment. The binding reaction was initiated by the addition of compound.

Row | EC50 [nM] | SMILES
1 | 16.9 | C[C@]12CCC(C(=O)O)=CC1=CCC1C2CC[C@@]2(C)C1CC[C@@H]2C(=O)c1ccc(O)cc1 (some centres not stated) [MFA-1]
2 | 509 | C[C@]12CCC(C(=O)O)=CC1=CCC1C2CC[C@@]2(C)C1CC[C@@H]2C(=O)c1ccccc1 (some centres not stated) [MFA-2]
